The test system of data set [1] is human fibrosarcoma cell line HT-1080. The data set can be described thus: HT-1080 cell assay (CellTiter-Glo, 72 hours). It counts as cell-based. The settings on record: 72 hours incubation. Here is the method: The human fibrosarcoma cell line HT-1080 were grown to almost complete confluence in T75 tissue culture flasks in preparation for the experiment. The cells were trypsinised and re-suspended in complete medium using DMEM plus 9% FBS including penicillin/streptomycin supplements. 500 cells in a total volume of 25 μl were seeded into black walled 384 well plates and returned to a CO2 incubator over-night. Compounds and standards were prepared at 333.3× actual test concentration in neat DMSO. 10 point dose response curves of test compounds were generated by 1:3 serial dilutions, 2 μl of DMSO stock was transferred to 109 μl complete medium. This was further diluted 1:6 in complete medium, with 5 μl of the resulting solution added to the incubated 384 well plate. […] For experimental blanks at the start of the experiment, CellTiter-Glo was added to a satellite plate of cells (identical to the experimental plate), when adding compounds on Day 1. The average of these wells is used as the blanks in the calculation template. Following 72 hours incubation with compounds and standard the plate was removed from the incubator and allowed to equilibrate at room temperature for at least 30 minutes. CellTiter-Glo was thawed and subsequently 30 μl added to columns 2-23. The plate was covered with a clear Perkin Elmer Topseal and placed on a plate shaker for 10-20 mins to aid homogenous mixing. Luminescence per well was determined using an EnVision 2104 Multilabel Reader (PerkinElmer) or other suitable reader. The compound blank value recorded on Day 1 is subtracted from all other data. Data is expressed as % inhibition of mean DMSO control response and the EC50 is calculated as 50% maximum response. The EC50 values are determined from a sigmoidal 4 parameter curve fit using XLfit in conjunction with Activity Base (IDBS; Guildford, Surrey, UK). The bottom of the curve is fixed to 0% inhibition.

The subject of data set [2] is pregnant Sprague Dawley rats. Nature of the data set: Rat embryofetal development study. The data set is classed as in vivo. The settings on record: 6 mpk sc once every three days, Gestation Days 6-18. As to the method:
The objective of this study design was to evaluate the potential effects of disclosed compounds on embryo/fetal development when given subcutaneously to pregnant rats once every three days during the critical period of organogenesis (Gestation Days 6-18). Female, Sprague Dawley rats, approximately 10 weeks of age, time bred, were ordered from a certified vendor and housed individually housed in stainless steel cages suspended over flush pans, on a 12-hour light-dark cycle (0700-1900) at 20-26° C. and 30-70% humidity. Rats were fed a standard rodent chow and provided water ad libitum. Rats were received and housed in the facility for a period of approximately 1 to 2 days.
Compounds were formulated using 100% DMSO mixed in Sterile Water for Injection, resulting in 2% DMSO solution in water. If necessary, due to limited solubility of a test article, a higher percentage of DMSO solution in water was used. Groups of 8 mated and presumed pregnant female rats were given subcutaneous doses of vehicle or test article, once every three days, beginning on Gestation Day 6 and ending on Gestation Day 18 (Days 6, 9, 12, 15, and 18), maintained two more days, and then euthanized and necropsied on Gestation Day 20. Body weights was recorded for all animals on Gestation Days 5 (purpose of randomization), 6, 9, 12, 15, 18, and 20 (scheduled euthanasia). Food consumption by weight was recorded on Gestation Days 6, 9, 12, 15, 18, and 20 (scheduled termination).
At necropsy, the dams were examined visually for external abnormalities including palpable masses. The abdominal, thoracic, and cranial cavities and their contents were examined for abnormalities and findings will be recorded. The reproductive tract were examined to record the number of ovarian corpora lutea, the number and location of uterine implantation sites noting the position of the cervix, and the number of early resorptions, late resorptions, live fetuses, and dead fetuses. For dead fetuses and late resorptions, crown-to-rump length and weight were recorded, if possible, and the fetus was discarded. For viable fetuses, weight, sex, and grossly visible external abnormalities were recorded.

The subject of data set [3] is Diet Induced Obese (DIO) C57BL/6 mice. The data set can be described thus: 10 day DIO mouse model, weight loss vs. vehicle. The settings on record: 0.3 mpk sc once a day for 10 days. It counts as in vivo. The source says:
The objective of this study design was to investigate the efficacy of disclosed compounds in a 10 day DIO mouse model. Effects on body weight, food intake, hematology and blood chemistry were the primary readouts of this study design. Male, Diet Induced Obese (DIO) C57BL/6 mice, 19-21 weeks of age (13-15 weeks on high fat diet) were ordered from a certified vendor and upon receipt were housed on irradiated corncob bedding in micro-isolator cages on a 12-hour light-dark cycle (0700-1900) at 68-74° F. and 30-70% humidity. Mice were fed Research Diets D12492 (60% Kcal fat, 20% Kcal carbohydrate and 20% protein) and provided water ad libitum. DIO mice were received and housed in the facility for approximately two weeks prior to the start of test article administration. On Day −4 or −3, mice were randomized into study groups based on body weight and body weights were continued to be recorded daily for the duration of the study. Daily food intake was assessed starting on Study Day −2 by weighing of the food with hopper together to avoid loss of food in transfer.
Compounds were formulated into a 100% DMSO stock (at 9 mg/mL) prior to the start, and further diluted into the target working concentration using the vehicle of 10% DMSO in water. Prior to test article administration, starting on Day −3 a dosing acclimation occurred with all animals receiving a subcutaneous injection of vehicle (10% DMSO) only for 3 days. Starting on Day 1, test compounds or vehicle were administered based on individual body weight, subcutaneously, once a day for 10 days. All mice were sacrificed on Day 11, 24 hours following the final dosing on Day 10. After sacrifice, whole blood was collected and analyzed for hematology and blood chemistry parameters.
Compounds were tested for weight loss vs. vehicle at 0.3 and 1.0 mpk sc (mg per kg animal weight delivered subcutaneously), and the results are shown in Table 2 below.

In data set [4] the test system is DIO Sprague Dawley rats. Nature of the data set: 11 day rat DIO model, weight loss vs. vehicle. The data set is classed as in vivo. Particulars: 0.3 mpk sc once a day for 11 days. The text has this:
The objective of this study design is to investigate the efficacy of disclosed compounds in an 11 day rat DIO model used to screen compounds for pharmacologic efficacy on endpoints related to obesity and metabolism. Effects on body weight, food intake, hematology and blood chemistries were the primary readouts of this study design. Male Sprague Dawley rats, approximately 8 weeks of age, were ordered from a certified vendor and housed on irradiated corncob bedding in micro-isolator cages, on a 12-hour light-dark cycle (0700-1900) at 68-74° F. and 30-70% humidity. Rats were fed Research Diets D12451 (45% High Fat) and provided water ad libitum. Rats were received and housed in the facility for at least two or three weeks prior to start of test article administration. On Day −4 or −3, rats were randomized into study groups based on body weight and body weights were continued to be recorded daily for the duration of the study. Daily food intake was assessed starting on Study Day −2 by weighing the hopper including the food to avoid loss of food in transfer.
Compounds were formulated into a 100% DMSO stock (at 9 mg/mL) prior to the start, and further diluted into the target working concentration using the vehicle of 10% DMSO in water. […] After sacrifice, whole blood was collected and analyzed for hematology and blood chemistry parameters. […]

Structures can show the parent of a compound that is named as a salt. A value given as a limit tells only on which side of the number the result lay.

On to `CO[C@@H]1[C@H](OC(=O)N2CC3C(C2)C3(F)F)CC[C@]2(CO2)[C@H]1[C@@]1(C)O[C@@H]1CC=C(C)C` (stereo partly drawn) [Example 22, (3R,4S,5S,6R)-5-methoxy-4-((2R,3R)-2-methyl-3-(3-methylbut-2-enyl)oxiran-2-yl)-1-oxaspiro[2.5]octan-6-yl 6,6-difluoro-3-azabicyclo[3.1.0]hexane-3-carboxylate], for which the EC50 in data set [1] was under 0.5 nM. In addition, the “Rat Embryofetal @6 mpk” value in data set [2] is listed as “Negative”. The like results for `CO[C@@H]1[C@H](OC(=O)N2CCC3(CCOCC3)C2)CC[C@]2(CO2)[C@H]1[C@@]1(C)O[C@@H]1CC=C(C)C` [Example 27, (3R,4S,5S,6R)-5-methoxy-4-((2R,3R)-2-methyl-3-(3-methylbut-2-enyl)oxiran-2-yl)-1-oxaspiro[2.5]octan-6-yl 8-oxa-2-azaspiro[4.5]decane-2-carboxylate] were, in that order, under 0.5 nM and “Positive”. With `CO[C@@H]1[C@H](OC(=O)NC2CC3(CCN(C)C3)C2)CC[C@]2(CO2)[C@H]1[C@@]1(C)O[C@@H]1CC=C(C)C` (stereo partly drawn) [Example 11, (3R,4S,5S,6R)-5-methoxy-4-((2R,3R)-2-methyl-3-(3-methylbut-2-enyl)oxiran-2-yl)-1-oxaspiro[2.5]octan-6-yl 6-methyl-6-azaspiro[3.4]octan-2-ylcarbamate formate], the “weight loss vs. vehicle, Mouse @ 0.3 mpk sc (%)” value in data set [3] is reported as 6%. Regarding `CO[C@@H]1[C@H](OC(=O)N2CC3(CCN(CC(F)F)CC3)C2)CC[C@]2(CO2)[C@H]1[C@@]1(C)O[C@@H]1CC=C(C)C` [Example 9, (3R,4S,5S,6R)-5-methoxy-4-((2R,3R)-2-methyl-3-(3-methylbut-2-enyl)oxiran-2-yl)-1-oxaspiro[2.5]octan-6-yl 7-(2,2-difluoroethyl)-2,7-diazaspiro[3.5]nonane-2-carboxylate formate], the EC50 in data set [1] is under 0.5 nM. The “Rat Embryofetal @6 mpk” value in data set [2] is reported as “Positive”.

In data set [1], `CO[C@@H]1[C@H](OC(=O)N2CC3(COC3)C2)CC[C@]2(CO2)[C@H]1[C@@]1(C)O[C@@H]1CC=C(C)C` [Example 2, (3R,4S,5S,6R)-5-methoxy-4-((2R,3R)-2-methyl-3-(3-methylbut-2-enyl)oxiran-2-yl)-1-oxaspiro[2.5]octan-6-yl 2-oxa-6-azaspiro[3.3]heptane-6-carboxylate] came in with a concentration for a half-maximal effect (EC50) of under 0.5 nM. Further, the “Rat Embryofetal @6 mpk” value in data set [2] is on record as “Positive”.

Regarding `CO[C@@H]1[C@H](OC(=O)N2CCC3(CCN(C)CC3)CC2)CC[C@]2(CO2)[C@H]1[C@@]1(C)O[C@@H]1CC=C(C)C` [Example 28, (3R,4S,5S,6R)-5-methoxy-4-((2R,3R)-2-methyl-3-(3-methylbut-2-enyl)oxiran-2-yl)-1-oxaspiro[2.5]octan-6-yl 9-methyl-3,9-diazaspiro[5.5]undecane-3-carboxylate], in data set [3], the “weight loss vs. vehicle, Mouse @ 0.3 mpk sc (%)” value came out at 8%. `CO[C@@H]1[C@H](OC(=O)N2C[C@@H]3[C@H](C2)[C@H]3C(=O)NCCN2CCOCC2)CC[C@]2(CO2)[C@H]1[C@@]1(C)O[C@@H]1CC=C(C)C` [Example 37, (1R,5S,6R)-(3R,4S,5S,6R)-5-methoxy-4-((2R,3R)-2-methyl-3-(3-methylbut-2-en-1-yl)oxiran-2-yl)-1-oxaspiro[2.5]octan-6-yl 6-((2-morpholinoethyl)carbamoyl)-3-azabicyclo[3.1.0]hexane-3-carboxylate]: the “weight loss vs. vehicle, Mouse @ 0.3 mpk sc (%)” value in data set [3] was 4.3%. With `CO[C@@H]1[C@H](OC(=O)N2CCC3(CC2)COC3)CC[C@]2(CO2)[C@H]1[C@@]1(C)O[C@@H]1CC=C(C)C` [Example 5, (3R,4S,5S,6R)-5-methoxy-4-((2R,3R)-2-methyl-3-(3-methylbut-2-enyl)oxiran-2-yl)-1-oxaspiro[2.5]octan-6-yl 2-oxa-7-azaspiro[3.5]nonane-7-carboxylate], the “weight loss vs. vehicle, Mouse @ 0.3 mpk sc (%)” value in data set [3] is 16.7%. In addition, in data set [4], the “weight loss vs. vehicle, Rat @ 0.3 mpk sc (%)” value came out at 6.6%.

On to `CO[C@@H]1[C@H](OC(=O)N2CC3(CNC(=O)C3)C2)CC[C@]2(CO2)[C@H]1[C@@]1(C)O[C@@H]1CC=C(C)C` [Example 25, (3R,4S,5S,6R)-5-methoxy-4-((2R,3R)-2-methyl-3-(3-methylbut-2-enyl)oxiran-2-yl)-1-oxaspiro[2.5]octan-6-yl 7-oxo-2,6-diazaspiro[3.4]octane-2-carboxylate], for which the “weight loss vs. vehicle, Mouse @ 0.3 mpk sc (%)” value in data set [3] stood at 2%. The same measure, in the same setting: the result for `CO[C@@H]1[C@H](OC(=O)N2CC3(C2)CS(=O)(=O)C3)CC[C@]2(CO2)[C@H]1[C@@]1(C)O[C@@H]1CC=C(C)C` [Example 23, (3R,4S,5S,6R)-5-methoxy-4-((2R,3R)-2-methyl-3-(3-methylbut-2-enyl)oxiran-2-yl)-1-oxaspiro[2.5]octan-6-yl 2-thia-6-azaspiro[3.3]heptane 2,2-dioxide-6-carboxylate] reads 2%. Take `CO[C@@H]1[C@H](OC(=O)/C=C/c2ccc(OCCN(C)C)cc2)CC[C@]2(CO2)[C@H]1[C@@]1(C)O[C@@H]1CC=C(C)C` [compound A, [(3R,6R,7S,8S)-7-methoxy-8-[(2R,3R)-2-methyl-3-(3-methylbut-2-enyl)oxiran-2-yl]-2-oxaspiro[2.5]octan-6-yl] (E)-3-[4-[2-(dimethylamino)ethoxy]phenyl]prop-2-enoate, reference compound]: in data set [2], the “Rat Embryofetal @6 mpk” value is “Positive”.
